Measured values: patent publication EP0119446A2, “Growth promoting aminophenylethyl amine derivatives” (BAYER AG, priority 1983, dated 1984)

System: Ratten, weiblich
Assay: Feeding trial in rats (feed intake, weight gain, feed conversion)
Assay type: in vivo, Ratten (SPF Wistar)
Settings: n = 6
From the text: (§1) Die Tiere wurden 2 Tage an die neuen Haltungsbedingungen adaptiert, wobei generell das Versuchsfutter ohne Wirkstoffzusatz verabreicht wurde. Am dritten Versuchstag wurden die Tiere randomisiert und anschließend die Versuchsgruppen so gebildet, daß sowohl die Mittelwerte als auch die Streuungen in den Körpergewichten zwischen den Gruppen gleich waren. Nach einer 5-tägigen Vorperiode wurde eine 8-tägige Hauptperiode durchgeführt, in denen Futteraufnahme, Zuwachs und Futterverwertung bestimmt wurden.
Es wurden folgende Behandlungen geprüft: • b 1) Negativkontrolle (n = 12) • b 2) 25 ppm (Wirkstoff Beispiel 12) (n = 6)
as §1, with “7-tägige” for “8-tägige”
Es wurden folgende Behandlungen geprüft: • b 1) Negativkontrolle (n = 12) • b 2) 0,2 ppm (Wirkstoff Beispiel 12) (n = 6) • b 3) 10 ppm (Wirkstoff Beispiel 12) (n = 6)
Es wurden folgende Behandlungen geprüft: • b 1) Negativkontrolle (n = 12) • b 2) 25 ppm (Wirkstoff Beispiel 2) (n = 6)
as §1, with “7-tägigen” for “5-tägigen”, “7-tägige” for “8-tägige”
Es wurden folgende Behandlungen geprüft: • b 1) Negativkontrolle (n = 24) • b 2) 25 ppm (Wirkstoff Beispiel 2) (n = 6)
Es wurden folgende Behandlungen geprüft: • b 1) Negativkontrolle (n = 12) • b 2) 0,2 ppm (Wirkstoff Beispiel 1) (n = 6) • b 3) 10 ppm (Wirkstoff Beispiel 1) (n = 6)

[1] = 0,2 ppm in feed, whole test period 12 Tage (5-day pre-period + 7-day main period), negative control 200
[2] = 0,2 ppm in feed, whole test period 12 Tage, negative control 4,88
[3] = 0,2 ppm in feed, whole test period 12 Tage, negative control 41,0
[4] = 10 ppm in feed, whole test period 12 Tage (5-day pre-period + 7-day main period), negative control 200
[5] = 10 ppm in feed, whole test period 12 Tage, negative control 4,88
[6] = 10 ppm in feed, whole test period 12 Tage, negative control 41,0
[7] = 25 ppm in feed, whole test period 13 Tage (5-day pre-period + 8-day main period), negative control 174
[8] = 25 ppm in feed, whole test period 13 Tage, negative control 5,06
[9] = 25 ppm in feed, whole test period 13 Tage, negative control 35,4

SMILES	Futter-aufnahme [1]	Futter-verwer-tung [2]	Zuwachs [3]	Futter-aufnahme [4]	Futter-verwer-tung [5]	Zuwachs [6]	Futter-aufnahme [7]	Futter-verwer-tung [8]	Zuwachs [9]	Futter-aufnahme (25 ppm in feed, whole test period 14 Tage (7-day pre-period + 7-day main period), negative control 225)	Futter-verwer-tung (25 ppm in feed, whole test period 14 Tage, negative control 5,30)	Zuwachs (25 ppm in feed, whole test period 14 Tage, negative control 40,6)
Cc1cc(NCC(O)c2cc(Cl)c(N)c(Cl)c2)ccc1Oc1ccc(SC(F)(F)F)cc1 (stereo not drawn) [Bsp. 1]	204 g	4,25 g/g	47,9 g	206 g	4,46 g/g	46,2 g	184 g	4,23 g/g	43,9 g	–	–	–
Cc1cc(NCC(O)c2cc(Cl)c(N)c(Cl)c2)ccc1Oc1ccc(S(=O)(=O)C(F)(F)F)cc1 (stereo not drawn) [Bsp. 2]	–	–	–	–	–	–	180 g	4,85 g/g	37,5 g	233 g	4,88 g/g	47,8 g
CC(C)C(C)[Si](C)(C)OC(CN(C(C)(C)C)[Si](C)(C)C(C)C(C)C)c1cc(Cl)c(N)c(Cl)c1 (stereo not drawn) [Bsp. 12]	217 g	4,13 g/g	52,5 g	204 g	4,03 g/g	50,7 g	193 g	3,77 g/g	51,9 g	–	–	–
